Reference: patent US12338220B2, “Antiviral pyrazolopiridinone compounds” (Novartis AG, priority 2019, dated 2025)
Read-outs that look alike come from different tables or passages of the source.

Tests used:
[1] = tested on: CMV; experiment: microbe, parasite or virus in culture; assay type: cell-based; details: Human betaherpesvirus 5, 72 h, read-out: CMV-Luc Cellular EC50, NN-NHDF cells, MOI 1, 72 hrs
[2] = target: CMV-polymerase (Human cytomegalovirus (strain AD169) (HHV-5) (Human herpesvirus 5), UniProt P08546); experiment: biochemical
[3] = target: HSV-polymerase (Human herpesvirus 1 (strain 17) (HHV-1) (Human herpes simplex virus 1), UniProt P04293); experiment: biochemical
[4] = tested on: HCMV-Rluc virus (AD169 pp28-hRluc rUL131); experiment: CMV Luciferase Assay of Compounds 243-262 in ARPE-19 cells; assay type: cell-based; details: read-out: CMV-Luc Cellular EC50 in ARPE-19
Method: CMV Luciferase Assay of Compounds 243-262.
Compounds 243-262 were tested in a luminescence assay as follows.
ARPE-19 cells were maintained in growth medium (DMEM/F12 Glutamax+10 fetal bovine serum (FBS)+PenStrep) and, before reaching full confluence, were transferred to a centrifuge tube and spun for 5 minutes at 1000 rpm. The cells were resuspended in assay medium (DMEM/F12 Glutamax+2% FBS+PenStrep) and counted. Cell density was adjusted to one million cells per milliliter and infected with HCMV-Rluc virus (AD169 pp28-hRluc rUL131; MOI 0.6) in a 50 ml conical tube for 2 hours while shaking. After dilution of the infectious suspension ten-fold (to 100,000 cells per milliliter), 8000 cells are directly plated in 384-well plates pre-spotted with the compound to be tested. The cells were incubated for 72 hours at 37 degrees Celsius. Cells were then placed at room temperature and allowed to equilibrate for 20 minutes before addition of the Renilla-Glo (Promega) reagent. After a 10-minute incubation at room temperature, luminescence was measured on a microplate reader.

[5] = read-out: CMV-polymerase Biochemical IC50
[6] = read-out: HSV-polymerase Biochemical IC50
[7] = CMV-polymerase Biochemical IC50
[8] = Human betaherpesvirus 5, AD169, ARPE-19, 72 h

SMILES | EC50 [1] | IC50 [2, 5] | IC50 [3] | EC50 [4, 8] | also measured
Cn1nc(C2=NO[C@H](c3ccc(C#N)cc3)C2)c2c1C(=O)N(CC1(S(=O)(=O)C(C)(C)CO)CC1)CC2 [Example 108, (S)-4-(3-(6-((1-((1-hydroxy-2-methylpropan-2-yl)sulfonyl)cyclopropyl)methyl)-1-methyl-7-oxo-4,5,6,7-tetrahydro-1H-pyrazolo[3,4-c]pyridin-3-yl)-4,5-dihydroisoxazol-5-yl)benzonitrile] | 0.032 µM | 0.001 µM |  |  | IC50 [3, 6]: 0.047 µM
Cn1nc(C(=O)NCc2ccc(Cl)cc2)c2c1C(=O)N(CC1(S(=O)(=O)C(C)(C)C(N)=O)CC1)CC2 [Example 109, 6-((1-((1-amino-2-methyl-1-oxopropan-2-yl)sulfonyl)cyclopropyl)methyl)-N-(4-chlorobenzyl)-1-methyl-7-oxo-4,5,6,7-tetrahydro-1H-pyrazolo[3,4-c]pyridine-3-carboxamide] | 0.078 µM | 0.003 µM | 0.076 µM |  | 
Cn1nc(C(=O)NCc2ccc(C#N)cc2)c2c1C(=O)N(CC1(S(=O)(=O)C(C)(C)CCO)CC1)CC2 [Example 113, N-(4-Cyanobenzyl)-6-((1-((4-hydroxy-2-methylbutan-2-yl)sulfonyl)cyclopropyl)methyl)-1-methyl-7-oxo-4,5,6,7-tetrahydro-1H-pyrazolo[3,4-c]pyridine-3-carboxamide] | 0.036 µM | 0.003 µM | 0.038 µM |  | 
CNS(=O)(=O)C1(CN2CCc3c(C(=O)NCc4ccc(C#N)cc4)nn(C)c3C2=O)CC1 [Example 123, N-(4-cyanobenzyl)-1-methyl-6-((1-(N-methylsulfamoyl)cyclopropyl)methyl)-7-oxo-4,5,6,7-tetrahydro-1H-pyrazolo[3,4-c]pyridine-3-carboxamide] | 0.157 µM | 0.009 µM | 0.196 µM |  | 
Cn1nc(C(=O)NCc2ccc(C#N)cc2)c2c1C(=O)N(CC1(S(=O)(=O)N3CC(O)C3)CC1)CC2 [Example 128, N-(4-Cyanobenzyl)-6-((1-((3-hydroxyazetidin-1-yl)sulfonyl)cyclopropyl)methyl)-1-methyl-7-oxo-4,5,6,7-tetrahydro-1H-pyrazolo[3,4-c]pyridine-3-carboxamide] | 0.094 µM |  | 0.137 µM |  | IC50 [2, 7]: 0.005 µM
Cc1cc(NS(=O)(=O)C2(CN3CCc4c(C(=O)NCc5ccc(C#N)cc5)nn(C)c4C3=O)CC2)no1 [Example 165, N-(4-cyanobenzyl)-1-methyl-6-((1-(N-(5-methylisoxazol-3-yl)sulfamoyl)cyclopropyl)methyl)-7-oxo-4,5,6,7-tetrahydro-1H-pyrazolo[3,4-c]pyridine-3-carboxamide] | 0.136 µM | 0.001 µM | 0.014 µM |  | 
Cn1nc(C(=O)NCc2ccc(C#N)cc2)c2c1C(=O)N(CC1(S(=O)(=O)C3COC3)CC1)CC2 [Example 168, N-(4-cyanobenzyl)-1-methyl-6-((1-(oxetan-3-ylsulfonyl)cyclopropyl)methyl)-7-oxo-4,5,6,7-tetrahydro-1H-pyrazolo[3,4-c]pyridine-3-carboxamide] | 0.072 µM |  |  |  | IC50 [2, 7]: 0.004 µM; IC50 [3, 6]: 0.097 µM
C[C@H](NC(=O)c1nn(C)c2c1CCN(CC1(S(=O)(=O)C(C)(CO)CO)CC1)C2=O)c1ccc(Cl)cc1 [Example 177, (S)-N-(1-(4-Chlorophenyl)ethyl)-6-((1-((1,3-dihydroxy-2-methylpropan-2-yl)sulfonyl)cyclopropyl)methyl)-1-methyl-7-oxo-4,5,6,7-tetrahydro-1H-pyrazolo[3,4-c]pyridine-3-carboxamide] | 0.168 µM | 0.004 µM | 0.122 µM |  | 
C[C@@H](NC(=O)c1nn(C)c2c1CCN(CC1(S(=O)(=O)C(C)(CO)CO)CC1)C2=O)c1ccc(Cl)cc1 [Example 178, (R)-N-(1-(4-Chlorophenyl)ethyl)-6-((1-((1,3-dihydroxy-2-methylpropan-2-yl)sulfonyl)cyclopropyl)methyl)-1-methyl-7-oxo-4,5,6,7-tetrahydro-1H-pyrazolo[3,4-c]pyridine-3-carboxamide] | 9.72 µM | 0.24 µM | 8.06 µM |  | 
Cn1nc(C(=O)NCc2ccc(C#N)cc2)c2c1C(=O)N(CC1(S(=O)(=O)Nc3cccc(CO)n3)CC1)CC2 [Example 243, N-(4-cyanobenzyl)-6-((1-(N-(6-(hydroxymethyl)pyridin-2-yl)sulfamoyl)cyclopropyl)methyl)-1-methyl-7-oxo-4,5,6,7-tetrahydro-1H-pyrazolo[3,4-c]pyridine-3-carboxamide] |  |  |  | 0.115 µM | 
CC(=O)Nc1cccc(NS(=O)(=O)C2(CN3CCc4c(C(=O)NCc5ccc(C#N)cc5)nn(C)c4C3=O)CC2)n1 [Example 244, 6-((1-(N-(6-acetamidopyridin-2-yl)sulfamoyl)cyclopropyl)methyl)-N-(4-cyanobenzyl)-1-methyl-7-oxo-4,5,6,7-tetrahydro-1H-pyrazolo[3,4-c]pyridine-3-carboxamide] |  |  |  | 0.116 µM | 
Cn1nc(C(=O)NCc2ccc(C#N)cc2)c2c1C(=O)N(CC1(S(=O)(=O)Nc3cnccn3)CC1)CC2 [Example 245, N-(4-cyanobenzyl)-1-methyl-7-oxo-6-((1-(N-(pyrazin-2-yl)sulfamoyl)cyclopropyl)methyl)-4,5,6,7-tetrahydro-1H-pyrazolo[3,4-c]pyridine-3-carboxamide] |  |  |  | 0.181 µM | 
Cn1nc(C(=O)NCc2ccc(C#N)cc2)c2c1C(=O)N(CC1(S(=O)(=O)Nc3ccccc3)CC1)CC2 [Example 246, N-(4-cyanobenzyl)-1-methyl-7-oxo-6-((1-(N-phenylsulfamoyl)cyclopropyl)methyl)-4,5,6,7-tetrahydro-1H-pyrazolo[3,4-c]pyridine-3-carboxamide] |  |  |  | 0.0745 µM | 
Cn1nc(C(=O)NCc2ccc(C#N)cc2)c2c1C(=O)N(CC1(S(=O)(=O)Nc3ncccc3F)CC1)CC2 [Example 247, N-(4-cyanobenzyl)-6-((1-(N-(3-fluoropyridin-2-yl)sulfamoyl)cyclopropyl)methyl)-1-methyl-7-oxo-4,5,6,7-tetrahydro-1H-pyrazolo[3,4-c]pyridine-3-carboxamide] |  |  |  | 0.388 µM | 
Cn1nc(C(=O)NCc2ccc(C#N)cc2)c2c1C(=O)N(CC1(S(=O)(=O)Nc3ccccc3C#N)CC1)CC2 [Example 248, N-(4-cyanobenzyl)-6-((1-(N-(2-cyanophenyl)sulfamoyl)cyclopropyl)methyl)-1-methyl-7-oxo-4,5,6,7-tetrahydro-1H-pyrazolo[3,4-c]pyridine-3-carboxamide] |  |  |  | 10 µM | 
Cn1nc(C(=O)NCc2ccc(Cl)c(F)c2)c2c1C(=O)N(CC1(S(=O)(=O)C(C)(C)C(O)CO)CC1)CC2 (stereo not drawn) [Example 249, N-(4-chloro-3-fluorobenzyl)-6-((1-((3,4-dihydroxy-2-methylbutan-2-yl)sulfonyl)cyclopropyl)methyl)-1-methyl-7-oxo-4,5,6,7-tetrahydro-1H-pyrazolo[3,4-c]pyridine-3-carboxamide] |  |  |  | 0.00824 µM | 
Cn1nc(C(=O)NCc2ccc(Cl)c(F)c2)c2c1C(=O)N(CC1(S(=O)(=O)C(C)(C)[C@H](O)CO)CC1)CC2 [Example 250, (R)—N-(4-chloro-3-fluorobenzyl)-6-((1-((3,4-dihydroxy-2-methylbutan-2-yl)sulfonyl)cyclopropyl)methyl)-1-methyl-7-oxo-4,5,6,7-tetrahydro-1H-pyrazolo[3,4-c]pyridine-3-carboxamide] |  |  |  | 0.0267 µM | 
Cn1nc(C(=O)NCc2ccc(Cl)c(F)c2)c2c1C(=O)N(CC1(S(=O)(=O)C(C)(C)[C@@H](O)CO)CC1)CC2 [Example 251, (S)—N-(4-chloro-3-fluorobenzyl)-6-((1-((3,4-dihydroxy-2-methylbutan-2-yl)sulfonyl)cyclopropyl)methyl)-1-methyl-7-oxo-4,5,6,7-tetrahydro-1H-pyrazolo[3,4-c]pyridine-3-carboxamide] |  |  |  | 0.00983 µM | 
Cn1nc(C(=O)NCc2ccc(C#N)cc2)c2c1C(=O)N(CC1(S(=O)(=O)C(C)(C)C(O)CO)CC1)CC2 (stereo not drawn) [Example 252, N-(4-cyanobenzyl)-6-((1-((3,4-dihydroxy-2-methylbutan-2-yl)sulfonyl)cyclopropyl)methyl)-1-methyl-7-oxo-4,5,6,7-tetrahydro-1H-pyrazolo[3,4-c]pyridine-3-carboxamide] |  |  |  |  | EC50 ([4]; ARPE-19 cells, MOI 0.6, 72 hours): 0.0219 µM
Cn1nc(C(=O)NCc2ccc(C#N)cc2)c2c1C(=O)N(CC1(S(=O)(=O)NC(C)(C)CC(N)=O)CC1)CC2 [Example 253, 6-((1-(N-(4-amino-2-methyl-4-oxobutan-2-yl)sulfamoyl)cyclopropyl)methyl)-N-(4-cyanobenzyl)-1-methyl-7-oxo-4,5,6,7-tetrahydro-1H-pyrazolo[3,4-c]pyridine-3-carboxamide] |  |  |  | 0.386 µM | 
CN(C)C(=O)CCNS(=O)(=O)C1(CN2CCc3c(C(=O)NCc4ccc(C#N)cc4)nn(C)c3C2=O)CC1 [Example 254, N-(4-cyanobenzyl)-6-((1-(N-(3-(dimethylamino)-3-oxopropyl)sulfamoyl)cyclopropyl)methyl)-1-methyl-7-oxo-4,5,6,7-tetrahydro-1H-pyrazolo[3,4-c]pyridine-3-carboxamide] |  |  |  | 1 µM | 
